Reference: PubChem BioAssay AID248 (DTP/NCI, 2004)
Several values for one entry are separate records, joined by “and”; a condition that tells them apart may be missing. Identical values can stand only once. Inconclusive results and toxic doses are left out. No stated cut-off is given here; in the data, active means T/C of 150% or more; inactive means T/C below 125%.

Test system: L1210 leukemia ip in BDF1 mice, survival T/C
Test: NCI In Vivo Anticancer Drug Screen. Data for tumor model L1210 Leukemia (intraperitoneal) in B6D2F1 (BDF1) mice
Conditions: endpoint: mean survival time, higher = longer survival
In short: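 Mice bearing the transplanted tumor received compound or vehicle. Survival of the treated group was divided by that of the vehicle-treated control group to give the ratio.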

[1] = dose: 100.0 mg/kg/injection, schedule: Q01DX009 (ip), vehicle: Klucel (hydroxypropylcellulose) (HPC)
[2] = dose: 100.0 mg/kg/injection, schedule: Q04DX003 (ip), vehicle: Klucel (hydroxypropylcellulose) (HPC)
[3] = dose: 200.0 mg/kg/injection, schedule: Q01DX009 (ip), vehicle: Klucel (hydroxypropylcellulose) (HPC)
[4] = dose: 200.0 mg/kg/injection, schedule: Q04DX003 (ip), vehicle: Klucel (hydroxypropylcellulose) (HPC)
[5] = dose: 400.0 mg/kg/injection, schedule: Q01DX009 (ip), vehicle: Klucel (hydroxypropylcellulose) (HPC)
[6] = dose: 400.0 mg/kg/injection, schedule: Q04DX003 (ip), vehicle: Klucel (hydroxypropylcellulose) (HPC)
[7] = dose: 25.0 mg/kg/injection, schedule: Q01DX009 (ip), vehicle: saline
[8] = dose: 50.0 mg/kg/injection, schedule: Q04DX002 (ip), vehicle: saline
[9] = dose: 50.0 mg/kg/injection, schedule: Q04DX003 (ip), vehicle: saline with Tween-80
[10] = dose: 100.0 mg/kg/injection, schedule: Q04DX003 (ip), vehicle: saline with Tween-80
[11] = dose: 1.56 mg/kg/injection, schedule: Q01DX009 (ip), vehicle: saline
[12] = dose: 3.12 mg/kg/injection, schedule: Q01DX009 (ip), vehicle: saline
[13] = dose: 6.25 mg/kg/injection, schedule: Q04DX003 (ip), vehicle: saline
[14] = dose: 12.5 mg/kg/injection, schedule: Q04DX003 (ip), vehicle: saline
[15] = dose: 25.0 mg/kg/injection, schedule: Q04DX003 (ip), vehicle: saline

Measured: T/C

COc1ccc(OC(=O)Nc2ccc(Cl)c(Cl)c2)cc1
inactive: [1] 102 % of control | [2] 95 % of control | [3] 106 % of control | [4] 95 % of control | [5] 95 % of control | [6] 102 % of control

COc1ccc(/C=C/C(=O)c2ccc(OC)c(OCc3ccccc3)c2)cc1OC
inactive: dose: 100.0 mg/kg/injection, schedule: Q01DX009 (ip), vehicle: water 98 % of control | dose: 100.0 mg/kg/injection, schedule: Q04DX003 (ip), vehicle: water 98 % of control | dose: 200.0 mg/kg/injection, schedule: Q01DX009 (ip), vehicle: water 93 % of control | dose: 200.0 mg/kg/injection, schedule: Q04DX003 (ip), vehicle: water 94 % of control | dose: 400.0 mg/kg/injection, schedule: Q01DX009 (ip), vehicle: water 97 % of control | dose: 400.0 mg/kg/injection, schedule: Q04DX003 (ip), vehicle: water 98 % of control

CC1C(C)(C)P(N)(=O)C1(C)C (centres undefined)
inactive: dose: 100.0 mg/kg/injection, schedule: Q04DX003 (ip), vehicle: saline 100 % of control | dose: 200.0 mg/kg/injection, schedule: Q04DX003 (ip), vehicle: saline 103 % of control | dose: 400.0 mg/kg/injection, schedule: Q04DX003 (ip), vehicle: saline 97 % of control

CCCCCCCCCCCCCCCc1ccc2c3c(cccc13)C=C2
inactive: dose: 100.0 mg/kg/injection, schedule: Q01DX001 (ip), vehicle: carboxymethylcellulose (CMC) 92 % of control | dose: 200.0 mg/kg/injection, schedule: Q01DX001 (ip), vehicle: carboxymethylcellulose (CMC) 92 % of control | dose: 400.0 mg/kg/injection, schedule: Q01DX001 (ip), vehicle: carboxymethylcellulose (CMC) 90 % of control

CN(C)c1n[nH]c(N)n1
inactive: [7] 100 % of control | dose: 25.0 mg/kg/injection, schedule: Q04DX002 (ip), vehicle: saline 110 % of control | dose: 50.0 mg/kg/injection, schedule: Q01DX009 (ip), vehicle: saline 98 % of control | [8] 103 % of control | dose: 100.0 mg/kg/injection, schedule: Q01DX009 (ip), vehicle: saline 96 % of control | dose: 200.0 mg/kg/injection, schedule: Q01DX009 (ip), vehicle: saline 108 % of control | dose: 200.0 mg/kg/injection, schedule: Q04DX002 (ip), vehicle: saline with Tween-80 111 % of control | dose: 200.0 mg/kg/injection, schedule: Q04DX002 (ip), vehicle: saline 103 % of control | dose: 400.0 mg/kg/injection, schedule: Q01DX009 (ip), vehicle: saline 116 % of control | dose: 400.0 mg/kg/injection, schedule: Q04DX002 (ip), vehicle: saline with Tween-80 108 % of control

CCN(CC)C(C)C(O)c1ccc2cc(Br)c3ccccc3c2c1 (centres undefined)
inactive: dose: 55.0 mg/kg/injection, schedule: Q01DX Z (ip), vehicle: methylcellulose (MC) 95 % of control | dose: 83.0 mg/kg/injection, schedule: Q01DX Z (ip), vehicle: methylcellulose (MC) 97 % of control | dose: 125.0 mg/kg/injection, schedule: Q01DX Z (ip), vehicle: methylcellulose (MC) 92 % of control

CCCCCCCCCCCCn1cnc2c(=S)nc[nH]c21
inactive: dose: 12.5 mg/kg/injection, schedule: Q01DX005 (ip), vehicle: other 106 % of control | dose: 25.0 mg/kg/injection, schedule: Q01DX005 (ip), vehicle: other 101 % of control | dose: 50.0 mg/kg/injection, schedule: Q01DX005 (ip), vehicle: other 100 % of control | dose: 100.0 mg/kg/injection, schedule: Q01DX005 (ip), vehicle: other 106 % of control | dose: 200.0 mg/kg/injection, schedule: Q01DX005 (ip), vehicle: other 89 % of control

N=C(N)c1ccc(C(=O)Oc2ccc([N+](=O)[O-])cc2)cc1
inactive: dose: 25.0 mg/kg/injection, schedule: Q01DX009 (ip), vehicle: saline with Tween-80 103 % of control | dose: 25.0 mg/kg/injection, schedule: Q04DX003 (ip), vehicle: saline with Tween-80 94 % of control | dose: 50.0 mg/kg/injection, schedule: Q01DX009 (ip), vehicle: saline with Tween-80 97 % of control | [9] 97 % of control | [10] 98 % of control and 92 % of control

CCN(CCOC(=O)Nc1ccc(F)cc1)c1ccccc1
inactive: [1] 98 % of control | [3] 98 % of control | [5] 110 % of control

CCCC[As](=O)(O)C(C)C
inactive: [11] 100 % of control | [12] 100 % of control | dose: 3.12 mg/kg/injection, schedule: Q04DX003 (ip), vehicle: saline 112 % of control | dose: 6.25 mg/kg/injection, schedule: Q04DX002 (ip), vehicle: saline 120 % of control | [13] 107 % of control | dose: 12.5 mg/kg/injection, schedule: Q01DX001 (ip), vehicle: saline 112 % of control | dose: 12.5 mg/kg/injection, schedule: Q04DX002 (ip), vehicle: saline 110 % of control | [14] 118 % of control | dose: 25.0 mg/kg/injection, schedule: Q01DX001 (ip), vehicle: saline 117 % of control | [7] 106 % of control and 111 % of control | [15] 105 % of control | dose: 50.0 mg/kg/injection, schedule: Q01DX001 (ip), vehicle: saline 103 % of control | [8] 117 % of control

COc1ccc(CN2CCCN(Cc3ccc(OC)cc3)C2c2ccncc2C)cc1
inactive: dose: 100.0 mg/kg/injection, schedule: Q01DX001 (ip), vehicle: acetone 96 % of control | dose: 200.0 mg/kg/injection, schedule: Q01DX001 (ip), vehicle: acetone 105 % of control | dose: 400.0 mg/kg/injection, schedule: Q01DX001 (ip), vehicle: acetone 96 % of control

CCCCCP(=S)(CCCC)CCCCC
inactive: dose: 100.0 mg/kg/injection, schedule: Q04DX002 (ip), vehicle: Klucel (hydroxypropylcellulose) (HPC) 98 % of control | dose: 200.0 mg/kg/injection, schedule: Q04DX002 (ip), vehicle: Klucel (hydroxypropylcellulose) (HPC) 94 % of control | dose: 400.0 mg/kg/injection, schedule: Q04DX002 (ip), vehicle: Klucel (hydroxypropylcellulose) (HPC) 94 % of control

CC1=NN(c2cccc(Cl)c2)C(=O)C1
inactive: [9] 105 % of control | dose: 100.0 mg/kg/injection, schedule: Q01DX009 (ip), vehicle: saline with Tween-80 93 % of control | [10] 94 % of control | dose: 200.0 mg/kg/injection, schedule: Q01DX009 (ip), vehicle: saline with Tween-80 106 % of control | dose: 200.0 mg/kg/injection, schedule: Q04DX003 (ip), vehicle: saline with Tween-80 96 % of control and 92 % of control | dose: 400.0 mg/kg/injection, schedule: Q04DX003 (ip), vehicle: saline with Tween-80 94 % of control

CC1COCC(C)N1CC(=O)NCCCN1CCN(CCCNC(=O)CN2C(C)COCC2C)CC1 (centres undefined)
inactive: dose: 44.0 mg/kg/injection, schedule: Q01DX001 (ip), vehicle: saline 98 % of control and 103 % of control | dose: 66.0 mg/kg/injection, schedule: Q01DX001 (ip), vehicle: saline 104 % of control and 108 % of control | dose: 100.0 mg/kg/injection, schedule: Q01DX001 (ip), vehicle: saline 104 % of control and 105 % of control | dose: 150.0 mg/kg/injection, schedule: Q01DX001 (ip), vehicle: saline 110 % of control and 116 % of control | dose: 200.0 mg/kg/injection, schedule: Q01DX001 (ip), vehicle: saline 113 % of control

COc1ccccc1NC(=O)Nc1ccccc1OC
inactive: [1] 98 % of control | [2] 97 % of control | [3] 104 % of control | [4] 97 % of control | [5] 103 % of control | [6] 94 % of control

Oc1ccc(-c2ccccc2)cc1CNC12CC3CC(CC(C3)C1)C2
inactive: [1] 100 % of control | [2] 90 % of control | [3] 88 % of control | [4] 100 % of control | [5] 93 % of control | [6] 94 % of control

FC(F)(F)c1ccc2c(c1)N(CCCN1CCN(CCCl)CC1)c1ccccc1S2
inactive: dose: 0.78 mg/kg/injection, schedule: Q01DX009 (ip), vehicle: saline 101 % of control | [11] 107 % of control | [12] 107 % of control | [13] 96 % of control | dose: 12.5 mg/kg/injection, schedule: Q01DX009 (ip), vehicle: saline 110 % of control | [14] 97 % of control | [15] 110 % of control | dose: 50.0 mg/kg/injection, schedule: Q04DX003 (ip), vehicle: saline 89 % of control
